The values below come from ChEMBL document CHEMBL5247638, “From rational design to serendipity: Discovery of novel thiosemicarbazones as potent trypanocidal compounds” (Eur J Med Chem, 2022).

SMILES strings stand for the structures. Active and inactive are the calls of the source. No cut-off for these calls is given here. Bounds are passed on as bounds.

As usually defined, the inhibition is the percentage by which the read-out fell short of the control. The term IC50 denotes the midpoint of a concentration-inhibition curve. In general, EC50 refers to the midpoint of the concentration-response curve. Low readings indicate an effect from little substance, high ones a need for much substance.

Data set [1] addresses Cruzipain (Trypanosoma cruzi) (UniProt P25779). As to the kind of experiment: Inhibition of Trypanosoma cruzi cruzain using Z-FR-AMC as substrate at 100 uM by fluorimetric analysis relative to control.
Data set [2] shares this target. Description: Inhibition of Trypanosoma cruzi cruzain using Z-FR-AMC as substrate at 100 uM preincubated for 10 mins followed by substrate addition by fluorimetric analysis relative to control.
Data set [3] relates to Trypanosoma brucei. As to the kind of experiment: Inhibition of TbrCatL using Z-FR-AMC as substrate at 100 uM by fluorimetric analysis relative to control.
The subject of data set [4] is Trypanosoma brucei. Description: Inhibition of TbrCatL using Z-FR-AMC as substrate at 100 uM preincubated for 10 mins followed by substrate addition by fluorimetric analysis relative to control.
The nature of data set [5]: Inhibition of TbrCatL using Z-FR-AMC as substrate preincubated for 10 mins followed by substrate addition by fluorimetric analysis. Set-up: species or system Trypanosoma brucei.
In data set [6] the test system is Trypanosoma brucei. Description: Antiparasitic activity against Trypanosoma brucei incubated for 72 hrs by SYBR Green 1 dye based fluorescence assay. The format is functional, organism-based.
Data set [7] concerns Trypanosoma cruzi. As to the kind of experiment: Antiparasitic activity against Trypanosoma cruzi CA-I/72 incubated for 72 hrs by DAPI staining based microscopic analysis. The format is functional, organism-based. As to conditions: CA-I/72, 72 h.
Data set [8] in a line: Inhibition of TbrCatL using Z-FR-AMC as substrate preincubated for 10 mins followed by substrate addition in presence of 0% Triton by fluorimetric analysis. Also noted: species or system Trypanosoma brucei.
Data set [9] can be described thus: Inhibition of TbrCatL using Z-FR-AMC as substrate preincubated for 10 mins followed by substrate addition in presence of 0.01% Triton by fluorimetric analysis. Also noted: species or system Trypanosoma brucei.
In data set [10] the target is Nonstructural protein 3 (Zika virus) (UniProt A0A024AXB9). Description: Inhibition of Zika virus NS2B-NS3 protease using Bz-Nle-Lys-Lys-Arg-AMC as substrate at 0.78 uM preincubated for 10 mins followed by substrate addition relative to control.
A short description of data set [11]: Inhibition of TbrCatL using Z-FR-AMC as substrate preincubated for 10 mins in presence of BSA followed by substrate addition by fluorimetric analysis. Also noted: species or system Trypanosoma brucei.
The target in data set [12] is Cruzipain (Trypanosoma cruzi) (UniProt P25779). Description: Inhibition of Trypanosoma cruzi cruzain using Z-FR-AMC as substrate at 0.25 to 1 uM incubated for 10 mins by fluorimetric analysis. As to conditions: dose 0.25-1 µM.
Data set [13] in a line: Selectivity index, ratio of CC50 for mouse myoblasts cells to EC50 for Trypanosoma cruzi CA-I/72. The format is toxicity. The conditions noted are these: read-out: Ratio CC50/EC50.
The target of another data set is Cruzipain (Trypanosoma cruzi, UniProt P25779). As to the kind of experiment: Inhibition of Trypanosoma cruzi cruzain using Z-FR-AMC as substrate preincubated for 10 mins followed by substrate addition by fluorimetric analysis.
Data set [14] relates to Trypanosoma cruzi. As to the kind of experiment: Potency index, ratio of pentamidine EC50 to test compound EC50 for antiparasitic activity against Trypanosoma cruzi CA-I/72 incubated for 72 hrs by DAPI staining based microscopic analysis. The class given is functional.
The subject of data set [15] is Trypanosoma cruzi. As to the kind of experiment: Potency index, ratio of benznidazole EC50 to test compound EC50 for antiparasitic activity against Trypanosoma cruzi CA-I/72 incubated for 72 hrs by DAPI staining based microscopic analysis. The format is functional.
Data set [16] in a line: Inhibition of TbrCatL using Z-FR-AMC as substrate preincubated for 10 mins followed by substrate addition in presence of 0.1% Triton by fluorimetric analysis. Set-up: species or system Trypanosoma brucei.

Sequence of Cruzipain (Trypanosoma cruzi) (P25779 123-467 limits assumed): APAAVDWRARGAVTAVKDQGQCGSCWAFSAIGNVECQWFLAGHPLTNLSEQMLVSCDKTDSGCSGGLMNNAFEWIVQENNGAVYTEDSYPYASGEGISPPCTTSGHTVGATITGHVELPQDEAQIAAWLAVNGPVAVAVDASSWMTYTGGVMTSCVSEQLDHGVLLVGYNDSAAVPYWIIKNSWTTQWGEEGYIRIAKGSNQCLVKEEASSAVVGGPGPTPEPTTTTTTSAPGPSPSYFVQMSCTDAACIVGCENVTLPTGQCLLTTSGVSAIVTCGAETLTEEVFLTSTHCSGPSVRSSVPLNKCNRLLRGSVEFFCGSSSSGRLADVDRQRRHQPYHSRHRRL
Sequence of Cruzipain (P25779 whole entry): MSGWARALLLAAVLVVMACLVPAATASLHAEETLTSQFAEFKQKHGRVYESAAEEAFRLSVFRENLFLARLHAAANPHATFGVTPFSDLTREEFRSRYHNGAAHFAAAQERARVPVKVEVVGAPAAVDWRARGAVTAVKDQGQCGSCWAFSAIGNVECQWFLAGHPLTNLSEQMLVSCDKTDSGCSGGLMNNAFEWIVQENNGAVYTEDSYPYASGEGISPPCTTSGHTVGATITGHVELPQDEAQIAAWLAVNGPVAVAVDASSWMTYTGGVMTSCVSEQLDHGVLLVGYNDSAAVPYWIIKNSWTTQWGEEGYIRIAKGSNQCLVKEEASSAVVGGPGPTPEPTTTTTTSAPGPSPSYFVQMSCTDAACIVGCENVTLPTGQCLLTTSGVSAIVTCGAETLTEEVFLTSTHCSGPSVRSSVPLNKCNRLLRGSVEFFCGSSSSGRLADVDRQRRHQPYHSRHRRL
Sequence of Nonstructural protein 3 (Zika virus) (A0A024AXB9 as listed by the source): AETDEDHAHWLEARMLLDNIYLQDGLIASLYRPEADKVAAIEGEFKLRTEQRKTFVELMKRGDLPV

With `NC(=S)N/N=C/c1cn(-c2ccc(Cl)cc2)nn1`, the inhibition in [1] turned out to be 52%; in [2], 72%; with Trypanosoma brucei [3] it was 73%; in the data set on Trypanosoma brucei [4], 91%. In addition, the IC50 in data set [5] was 16.5 µM; in [8], 1 µM; in [9], 16 µM. For the same compound, the EC50 with Trypanosoma brucei [6] is greater than 50 µM; in the data set with Trypanosoma cruzi [7], greater than 10 µM.

Consider `OCCNCc1cn(-c2ccc(Cl)cc2)nn1`, for which the EC50 is greater than 50 µM with Trypanosoma brucei [6] and greater than 10 µM in the data set on Trypanosoma cruzi [7].

With `Clc1ccc(-n2cc(CNCC3CCNCC3)nn2)cc1`, the IC50 in data set [5] came out at 168 µM. Besides, the EC50 in the data set with Trypanosoma brucei [6] is 49.7 µM; in the data set on Trypanosoma cruzi [7], greater than 10 µM.

With `NC(=S)N/N=C/c1cn(-c2ccc(Br)cc2Cl)nn1`, the inhibition in data set [1] was 16%; in data set [2] it was 6%; in the data set on Trypanosoma brucei [3], 25%; in the data set on Trypanosoma brucei [4], 98%. Further, the values for the IC50 in data set [5], in data set [8] and in data set [9] were 2.5 µM, 0.6 µM and 2 µM, respectively. The EC50 is greater than 50 µM in the data set with Trypanosoma brucei [6] and greater than 10 µM with Trypanosoma cruzi [7].

In the case of `OCCNCc1ccc(-c2ccc(Cl)c(Cl)c2)o1`, the inhibition in data set [1] was 62%; in data set [2], 55%; in the data set on Trypanosoma brucei [3], 29%; in the data set on Trypanosoma brucei [4], 40%. For the same compound, the EC50 is greater than 50 µM in the data set with Trypanosoma brucei [6] and greater than 10 µM with Trypanosoma cruzi [7].

Turning to `OCCNCc1cn(-c2ccc(Cl)c(Cl)c2)nn1`, the EC50 in the data set with Trypanosoma brucei [6] was greater than 50 µM; with Trypanosoma cruzi [7] it was greater than 10 µM.

For the compound `CN(C)CCCNCc1ccc(-c2ccc(Br)cc2)o1`, the values for the inhibition (in [1]; in the data set on Trypanosoma brucei [3]) were 79% and 59%, respectively.

As for `N/C(S)=N/N=C/c1ccc(-c2ccc(Cl)cc2)o1`, the inhibition in data set [1] is 19%; in data set [2] it was 94%; in the data set on Trypanosoma brucei [3], 14%; in the data set on Trypanosoma brucei [4], 96%; in [10] it was 24%. Moreover, the IC50 in [5] amounted to 0.04 µM; in data set [8], 0.07 µM; in [9], 0.04 µM; in data set [11], 15 µM. The EC50 in the data set with Trypanosoma brucei [6] is 27 µM; in the data set on Trypanosoma cruzi [7], 0.56 µM. Moreover, the inhibition entry in data set [12] was “inactive”.

Consider `O=C(NCCO)c1cn(-c2ccc(Br)cc2Cl)nn1`, for which the EC50 is greater than 50 µM in the data set with Trypanosoma brucei [6] and greater than 10 µM in the data set on Trypanosoma cruzi [7].

In the data set on Trypanosoma cruzi [7], `O=C(Cn1ccnc1[N+](=O)[O-])NCc1ccccc1` [BENZNIDAZOLE] came in with an EC50 of 5.4 µM. Further, the selectivity ratio in data set [13] is greater than 9.

As for `NC(=S)N/N=C/c1ccc(-c2ccc(Cl)cc2)o1`, at Cruzipain, the IC50 turned out to be 1 µM. Besides, the selectivity ratio in data set [13] is greater than 18.

`OCC(CO)NCc1ccc(-c2ccc(Br)cc2Cl)o1` displayed an inhibition with Trypanosoma brucei [3] of 64%. The IC50 against Cruzipain stood at 149 µM; in data set [5], 90 µM. In addition, the EC50 is 39.5 µM in the data set with Trypanosoma brucei [6] and greater than 10 µM in the data set on Trypanosoma cruzi [7].

Turning to `OCCNCc1cn(-c2ccc(Br)cc2Cl)nn1`, the EC50 with Trypanosoma brucei [6] is greater than 50 µM; in the data set on Trypanosoma cruzi [7], greater than 10 µM.

In the case of `Clc1cc(Br)ccc1-c1ccc(CNCCN2CCOCC2)o1`, the inhibition turned out to be 62% in the data set on Trypanosoma brucei [3] and 60% in the data set on Trypanosoma brucei [4]. Also, the results for the IC50 (against Cruzipain; in data set [5]) were 92 µM and 79 µM, respectively. Besides, the EC50 in the data set with Trypanosoma brucei [6] was 24.4 µM; in the data set with Trypanosoma cruzi [7], 0.59 µM. The selectivity ratio in data set [13] was greater than 17.

Consider `OCC(CO)NCc1ccc(-c2ccc(Cl)c(C(F)(F)F)c2)o1`, for which the inhibition in the data set on Trypanosoma brucei [3] was found to be 0%; in the data set with Trypanosoma brucei [4], 51%. The compound further gave a half-inhibitory concentration (IC50) at Cruzipain of 133 µM. Also, the figures for the EC50 in the data set with Trypanosoma brucei [6] and in the data set with Trypanosoma cruzi [7] were greater than 50 µM and greater than 10 µM, respectively.

As to `CN(C)CCCNCc1ccc(-c2ccc(Cl)cc2Cl)o1`, the values for the inhibition (in data set [1]; with Trypanosoma brucei [3]) were 67% and 81%, respectively.

In the case of `OCCNCc1ccc(-c2ccc(Br)cc2Cl)o1`, the inhibition is 68% in the data set on Trypanosoma brucei [3] and 67% with Trypanosoma brucei [4]. The 50% inhibitory concentration (IC50) against Cruzipain was 51 µM; in data set [5], 78 µM. Besides, the EC50 in the data set on Trypanosoma brucei [6] is 13 µM; with Trypanosoma cruzi [7], greater than 10 µM.

On to `NC(=S)N/N=C/c1ccc(-c2ccc(Br)cc2Cl)o1`, for which the inhibition in data set [1] worked out at 17%; in data set [2] it was 70%; in the data set with Trypanosoma brucei [3], 22%; with Trypanosoma brucei [4], 90%; in data set [10], 8%. Further, the IC50 against Cruzipain was found to be 0.45 µM; in data set [5], 0.05 µM; in data set [8] it was 0.006 µM; in [9] it was 0.05 µM; in data set [16], 0.7 µM; in [11] it was 14 µM. Further, the EC50 was greater than 50 µM in the data set on Trypanosoma brucei [6] and 0.027 µM in the data set with Trypanosoma cruzi [7]. In addition, the selectivity ratio in [13] is greater than 370. The “Ratio EC50” value in the data set on Trypanosoma cruzi [14] and in the data set with Trypanosoma cruzi [15] was 200 throughout. Also, in data set [12], the inhibition entry is “inactive”.
